# Data from US7662547B2, “Compositions and methods for detecting and treating HIV infections” (priority 2006, dated 2010).
# Key:
# [1] = tested on: F-actin; test: FITC-phalloidin staining of F-actin and flow cytometry in resting CD4 T cells; format: cell-based, human
# Procedure: Cells were stimulated with HIV-1 or gp120 IIIB (Microbix Biosystems Inc. Toronto, Ontario). F-actin staining using FITC-labeled phalloidin (Sigma, St. Louis, Mo.) was carried out according to the manufacture's recommendation with minor modifications. Briefly, each staining was carried out by using 10^6 cells. Cells were pelleted, fixed and permeabilized with cytoperm/cytofix (BD biosciences, San Diego, Calif.) for 20 min on ice, followed by stained with 5 μl of 0.3 uM FITC-labeled phalloidin for 30 min at 4° C. After wash, cells were resuspended in 1% paraformaldehyde and analyzed on FACSCalibur (BD Biosciences, San Jose, Calif.)
# [2] = tested on: HIV-1; test: HIV-1 latent infection of resting CD4 T cells, viral replication assay (p24 ELISA) after anti-CD3/CD28 activation; format: cell-based, HIV-1NL4-3; conditions: for HIV replication in resting T cells: 5 minutes before infection
# Procedure: Virus stocks of the HIV-1NL4-3 (Adachi et al. J Virol 59(2), 284-91 (1986)) were prepared by transfection of HeLa cells with cloned proviral DNA as described in Wu and Marsh (2001). Supernatant was harvested at 48 hours, and filtered through a 0.45 μm nitrocellulose membrane. Virus titer (TCID50) was measured by infection of a Rev-CEM indicator cell line which was constructed through stable integration of a Rev-dependent GFP expression lentiviral vector into CEM-SS. […] For infection of resting CD4 T cells, viruses were first titrated to determine minimal levels detectable by p24 ELISA in replication assays described below. Unless specified, for most replication assays, 10^3.5 to 10^4.5 TCID50 units of HIV-1 were used to infect 10^6 cells. For infection procedure, CD4 T cells were incubated with the virus for 2 hours, then washed twice with medium to remove unbound virus. Infected cells were resuspended into fresh RPMI 1604 medium supplemented with 10% heat-inactivated fetal bovine serum, penicillin (50 U/ml) and streptomycin (50 μg/ml) at a density of 10^6 per ml and incubated for 5 days without stimulation. Cells were activated at day 5 with anti-CD3/CD28 magnetic beads at 4 beads per cells. For viral replication assay, 10% of infected cells were taken at 1, 3, 5, 6, 7, 8, 9 days post infection. Cells were pelleted and the supernatant was saved for p24 ELISA. Levels of p24 in the supernatant were measured by using Coulter HIV-1 p24 Assay Kit (Beckman Coulter, Inc. Miami, Fla.). Plates were kinetically read using ELx808 automatic microplate reader (Bio-Tek Instruments, Inc. Winooski, Vt.) at 630 nm.
# Resting CD4 T cells were treated with pertussis toxin (Sigma, St. Louis, Mo.) at a final concentration of 100 ng/ml for 2 hours, then infected with HIV-1. Following infection, cells were washed 2 to 3 times to remove cell-free virus and the inhibitor. Cells were treated with Jasplakinolide (Molecular Probes, Eugene, Oreg.) for 1 to 2 hours or Latrunculin A (Biomol, Plymouth Meeting, Pa.) for 5 minutes at various concentrations, washed twice with medium, then infected with HIV-1. Following infection, cells were washed twice to remove cell free virus. Cells were treated with 200 nM of Staurosporine (Biomol, Plymouth Meeting, Pa.) for 2 hours, then infected with HIV-1. Following infection, cells were washed twice to remove cell-free virus and the inhibitor.
# Resting CD4 T cells were treated with S3 or Q104 for I to 2 hours, then infected with HIV-1. Following infection, cells were washed 2 to 3 times to remove cell-free virus and the peptides.
# Effects of Jas on LFA-1 activation also were tested. Jas treated or untreated resting T cells were activated by anti-CD3/CD28 bead and stained with human ICAM-1/Fc chimera and analyzed by flow cytometer. The effects of Jas on IL-2 secretion also were measured. […] Cells were treated with Jas for 2 hours, washed, infected with HIV-1 for 5 days, then activated by anti-CD3/CD28 bead. […] Following infection, cellular DNA was PCR amplified for viral late DNA and β-actin pseudogene. Cells were pre-activated with PHA plus IL-2, then treated and infected as in FIG. 3A. […] CEM-SS cell were treated and infected as in FIG. 3A.
# [3] = tested on: IL-2 secretion; test: IL-2 ELISA of cell culture supernatant after T cell activation; format: cell-based, human; conditions: 200 nM, treated, incubated and activated
# Procedure: IL-2 release into cell culture supernatant was detected by a human IL-2 ELISA development kit (PeproTech, Rocky Hill, N.J.) according to the manufacture's instruction. Briefly, each well of a plate was coated with 100 μl of capture antibody (1 μg/ml) and incubated overnight at room temperature, then washed and blocked with 300 μl of blocking solution for one hour at room temperature. Samples in plates were incubated for 1 hour at 37° C., then washed and incubated with 100 μl of detection antibody (0.5 μg/ml) for 1 hour at 37° C. Plates were washed and incubated with 100 μl of the avidin-peroxidase conjugate (1:2000 dilution) for 30 minutes at room temperature followed by washing and incubation with 100 μl of Tetramethylbenzidine (TMB) substrate buffer. Plates were kinetically read using ELx808 automatic microplate reader (Bio-Tek Instruments, Inc. Winooski, Vt.) at 630 nm.
# [4] = tested on: cofilin; test: Cofilin and phospho-cofilin western blot in resting CD4 T cells; format: cell-based, human
# Procedure: For activation of resting CD4 T cells with PHA (3 μg/ml) (Sigma, St. Louis, Mo.) plus IL-2 (100 U/ml) (Roche Applied Science, Indianapolis, Ind.), cells were cultured in the presence of these agents for 1 day.
# Briefly, 10^6 of CD4 T cells were lysed in NuPAGE LDS Sample Buffer (Invitrogen, Carlsbad, Calif.) followed by sonication. Samples were heated at 70° C. for 10 minutes before loading, then separated by SDS-PAGE and transferred onto nitrocellulose membranes (Invitrogen, Carlsbad, Calif.). The membranes were washed in TBS for 5 minutes and then blocked for 30 minutes at room temperature with Starting Block blocking buffer (Pierce, Rockford, Ill.). The blots were incubated with either a rabbit anti-cofilin antibody (1:1000 dilution) (Cell Signaling, Danvers, Mass.) or a rabbit anti-phospho-cofilin (ser3) antibody (1:1000 dilution) (Cell Signaling, Danvers, Mass.) diluted in 5% BSA-TBST and rocked at room temperature for 1 hour. The blots were washed three times for 15 minutes each and then incubated with a goat anti-rabbit horseradish peroxidase-conjugated antibodies (KPL, Inc. Gaithersburg, Md.) diluted in 2.5% skim milk-TBST (1:1000) for 1 hour. […] Images were captured with a CCD camera (Fluor Chem 9900 Imaging Systems) (Alpha Innotech, San Leandro, Calif.) and analyzed and processed by NIH-Image Version 163.
# [5] = target: T1, LIMK1 (Homo sapiens, UniProt P53667); test: In vitro LIMK1 kinase assay with GST-tagged recombinant human cofilin; format: biochemical
# T1 construct: purchased Upstate Biotechnologies, Lake Placid, N.Y
# Procedure: LIMK1 Kinase assays were performed using purified LIMK1 and GST-tagged recombinant human cofilin (Upstate Biotechnologies, Lake Placid, N.Y.) according to the manufacture's recommendation with minor modifications. Briefly, 18 μg of recombinant cofilin was incubated in 1× Kinase reaction buffer ([…], pH7.0, 200 μM EDTA) in the presence or absence of Staurosporine (200 nM) or the S3, Q104 peptides. LIMK1 was serially diluted in dilution buffer (20 mM MOPS-NaOH pH 7.0, 1 mM EDTA, 0.01% Brij-35, 5% glycerol, 0.1% 2-ME, 1 mg/ml BSA), then added into the reaction along with the ATP buffer (10 mM Magnesium Acetate, 100 μM ATP). The reaction was incubated for 15 minutes at 30° C. with constant agitation. The reaction was stopped by adding 25% (V/V) of 4×LDS sample buffer for SDS-PAGE and heated for 10 minutes at 70° C. Cofilin phosphorylation was analyzed by SDS-PAGE and western blotting using a rabbi anti-phospho-cofilin (ser3) antibody (Cell Signaling, Danvers, Mass.) as described in Example 10.
# [6] = tested on: HIV; conditions: Doranz et al. 1999; cited from earlier work
# [7] = 200 nM added during T cell activation at day 5
# T1 sequence (P53667 whole entry, species assumed): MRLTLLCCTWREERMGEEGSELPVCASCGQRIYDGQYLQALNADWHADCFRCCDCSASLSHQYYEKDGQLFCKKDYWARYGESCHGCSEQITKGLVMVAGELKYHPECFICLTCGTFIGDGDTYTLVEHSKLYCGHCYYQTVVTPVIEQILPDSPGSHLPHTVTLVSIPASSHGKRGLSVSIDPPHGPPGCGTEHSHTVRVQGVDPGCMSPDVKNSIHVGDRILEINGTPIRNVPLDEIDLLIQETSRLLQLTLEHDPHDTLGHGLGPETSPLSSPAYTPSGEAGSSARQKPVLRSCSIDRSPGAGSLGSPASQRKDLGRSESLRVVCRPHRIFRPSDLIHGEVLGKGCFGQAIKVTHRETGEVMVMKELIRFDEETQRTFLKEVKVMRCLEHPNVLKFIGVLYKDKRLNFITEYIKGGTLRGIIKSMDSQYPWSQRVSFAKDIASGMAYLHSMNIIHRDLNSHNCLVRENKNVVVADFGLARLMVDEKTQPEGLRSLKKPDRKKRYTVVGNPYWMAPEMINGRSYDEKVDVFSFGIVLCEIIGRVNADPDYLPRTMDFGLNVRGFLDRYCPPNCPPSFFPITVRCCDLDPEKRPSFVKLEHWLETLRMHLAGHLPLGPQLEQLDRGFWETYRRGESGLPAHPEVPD
compound,measurement,setting,value
"C/C1=C/C(=O)O[C@@H]2C[C@@H](CC[C@H](C)/C=C\C=C\CC1)O[C@@](O)([C@@H]1CSC(=O)N1)C2 [Lat-A, Latrunculin A]",actin depolymerization,"[1]; 25 nM, 5 min",actin depolymerization to an extent similar to that induced by HIV-1
same,actin depolymerization,"[1]; 2.5 μM to 250 nM, 5 min",dramatic actin depolymerization
same,"HIV replication in resting T cells, treatment before vs after infection","[2]; 25 nM, 5 minutes",enhancement was seen only in cells pretreated with Lat-A prior to infection
same,HIV replication in resting T cells,[2]; 25 nM,Enhanced HIV replication
same,HIV replication in resting T cells,[2]; 250 nM,donor-dependent variations from enhancement to inhibition
same,HIV replication in resting T cells,[2]; 2.5 μM,inhibited viral replication in all donors
CN[C@@H]1C[C@H]2O[C@@](C)([C@@H]1OC)n1c3ccccc3c3c4c(c5c6ccccc6n2c5c31)C(=O)NC4 [staurosporine],IL-2 secretion,[3],slight inhibition
same,actin depolymerization,[1]; 200 nM,actin depolymerization also was observed
same,cofilin phosphorylation in resting CD4 T cells,"[4]; 200 nM, no stimulation",gradual dephosphorylation and activation of cofilin
same,LIMK1 inhibition compared with S3 peptide,[5]; 200 nM,much stronger
same,phosphorylation of cofilin by LIMK1,[5]; 200 nM,directly inhibited
same,HIV-1 replication,[2]; [7],completely abolished HIV-1 replication
same,T cell activation,[2]; [7],inhibited T cell activation
same,HIV replication in resting CD4 T cells,[2]; 200 nM briefly before infection,dramatic enhancement
pertussis toxin [P.T],inhibition of viral induced actin depolymerization,"[1]; 100 ng/ml for 2 hours, then HIV-1",completely inhibited
same,inhibition of HIV-1 induced cofilin activation,"[4]; pretreated, then infected with HIV-1",Complete inhibition
same,viral replication in CXCR4 transfected U87-MG cells,[6],did not affect viral replication
same,viral replication in resting T cells,[2]; 100 ng/ml for 2 hours before infection,inhibited viral replication
"S3: Synthetic peptide MASGVAVSDGVIKVFN (SEQ ID NO: 3), N-terminal 16 amino acids of human cofilin",cofilin phosphorylation by LIMK1,[5]; peptide,inhibited cofilin phosphorylation
same,viral replication in resting CD4 T cells,"[2]; pre-treated 2 hours, then infected",enhanced viral replication
SDF-1: the natural ligand for CXCR4,F-actin change,[1]; 50 ng/ml,rapid actin polymerization
